The results in this text go back to US20250186411A1, “Methods of Treating Disorders Associated with Overactivation of IKKB” (The United States Government as represented by the …, priority 2023, published 2025).

Each structure is given as a SMILES string.

Data set [1] deals with IKKβ (Homo sapiens, UniProt O14920). Put plainly: Thermal shift assay. The following applies: BT503 1 μM, human podocytes.
Protocol: Each tube was treated at a range of temperatures (40° C. to 52° C.) for 3 minutes using Eppendorf Mastercycler gradient temperature setting. Protein was subsequently extracted from cells using freeze-thaw cycle, and IKKβ and β-actin were detected using western blot.
The subject of data set [2] is FVB/n mice. Kind of data set: Nephrotoxic Serum Nephritis (NTS) model. It is filed as in vivo, mouse. How it is done:
In the Nephrotoxic Serum Nephritis (NTS) model, 8-week-old FVB/n mice were initially sensitized with an intraperitoneal injection of 0.5 mg of sheep IgG (IP, Jackson ImmunoResearch) with complete Freund's adjuvant (IP, Millipore Sigma). Five days later, mice were administered 100 μl of NTS (IP, ProbeTex), as previously described (Estrada et al. (2018) JCI Insight 3). […] Urine was collected and mice were euthanized at day 7 or day 14 post-NTS treatment.
Urine albumin was quantified by ELISA using a kit from Bethyl Laboratory Inc. Urine creatinine levels were measured in the same samples using the Creatinine Colorimetric Assay Kit (500701; Cayman Chemical) as per manufacturer's protocol.
Briefly formalin-fixed and paraffin embedded sections were deparaffinized, and endogenous peroxidase was inactivated with H2O2. All kidney sections from these mice were prepared in identical fashion. Immunofluorescence was performed using rabbit anti-KLF15, mouse anti-WT1 (Santa Cruz, SC-7385), rabbit anti-Synaptopodin (Sigma, SAB3500585), rabbit anti-p65 (Cell Signaling Tech, 8242S) antibodies. After washing, sections were incubated with the appropriate fluorophore-linked secondary antibody (Alexa Fluor 647 Donkey anti-mouse, Alexa Fluor 568 Donkey anti-rabbit antibodies, Life Technologies). After counter staining with Hoechst (Thermo Fisher Scientific), slides were mounted in Prolong Gold mounting media (Thermo Fisher Scientific) and photographed under a Nikon Eclipse Ni-E Fully Motorized Microscope System with a DS-Qi2 digital camera.
Quantification of KLF15 staining in the podocytes was determined by quantifying the intensity of KLF15 staining (optical density) in WT1+Hoechst staining using ImageJ 1.53c software (National Institute of Health, http://imagej.nih.gov/ij).
Mice were perfused with PBS, and the kidneys were fixed in 10% phosphate buffered formalin overnight and switched to 70% ethanol before processing for histology. Kidney tissue was embedded in paraffin by Stony Brook Medicine Research Histology Core Laboratory (RHCL)—Department of Pathology and 4-μm-thick sections were stained with periodic acid-Schiff (PAS), hematoxylin & eosin (H&E), and masson's trichrome (Sigma-Aldrich). Quantification of % FSGS was determined by renal pathology in a blinded fashion (Huntsman Cancer Institute-University of Utah Health).

For data set [3], the system named is differentiated human podocytes. Put plainly: RNA sequencing and enrichment analysis of BT503-treated podocytes. It is filed as cell-based. The following applies: vs DMSO in the setting of LPS treatment. From the text: RNA sequencing data was processed as previously described (Z. Wang, A. Ma'ayan, (2016) F1000Res 5, 1574). Briefly, sequencing reads were first aligned to the human genome (version hg38) using Spliced Transcripts Alignment to a Reference (STAR 2.4.1c) (A. Dobin et al., (2013) Bioinformatics 29, 15-21). Aligned reads were then quantified to the transcriptome (UCSC hg38 annotation) at the gene level using featureCounts (v1.4.6) (Y. Liao, G. K. Smyth, W. Shi, (2014) Bioinformatics 30, 923-930). Read counts were normalized to count per million (CPM), and differentially expressed genes were identified using BioJupies (A. Lachmann et al., (2018) Nat Commun 9, 1366). Enrichment analyses of the differentially expressed genes were performed with Enrichr (33, 66) with WikiPathways (D. N. Slenter et al., (2018) Nucleic Acids Res 46, D661-d667) and KEGG (M. Kanehisa, S. Goto, (2000) Nucleic Acids Res 28, 27-30) databases. Normalized read counts were used to create matrix visualized heat maps on Morpheus by Broad Institute (https://software.broadinstitute.org/morpheus) with hierarchical clustering, sorted by one minus Pearson's correlation and clustered by rows. […]

Data set [4] has as its system differentiated human podocytes. Kind of data set: Oxygen consumption rate and extracellular acidification rate (Seahorse XFe96). It is filed as cell-based. As to the method:
Subsequently, basal OCR, maximal respiration, ATP-linked respiration, and spare respiratory capacity were determined in the presence of oligomycin, carbonyl cyanide-p-trifluoromethoxyphenylhydrazone (FCCP), and rotenone/antimycin A. All OCR measurements were normalized for the number of cells per well using CyQuant reagent (Life Technologies).

Chain of IKKβ (O14920 whole entry): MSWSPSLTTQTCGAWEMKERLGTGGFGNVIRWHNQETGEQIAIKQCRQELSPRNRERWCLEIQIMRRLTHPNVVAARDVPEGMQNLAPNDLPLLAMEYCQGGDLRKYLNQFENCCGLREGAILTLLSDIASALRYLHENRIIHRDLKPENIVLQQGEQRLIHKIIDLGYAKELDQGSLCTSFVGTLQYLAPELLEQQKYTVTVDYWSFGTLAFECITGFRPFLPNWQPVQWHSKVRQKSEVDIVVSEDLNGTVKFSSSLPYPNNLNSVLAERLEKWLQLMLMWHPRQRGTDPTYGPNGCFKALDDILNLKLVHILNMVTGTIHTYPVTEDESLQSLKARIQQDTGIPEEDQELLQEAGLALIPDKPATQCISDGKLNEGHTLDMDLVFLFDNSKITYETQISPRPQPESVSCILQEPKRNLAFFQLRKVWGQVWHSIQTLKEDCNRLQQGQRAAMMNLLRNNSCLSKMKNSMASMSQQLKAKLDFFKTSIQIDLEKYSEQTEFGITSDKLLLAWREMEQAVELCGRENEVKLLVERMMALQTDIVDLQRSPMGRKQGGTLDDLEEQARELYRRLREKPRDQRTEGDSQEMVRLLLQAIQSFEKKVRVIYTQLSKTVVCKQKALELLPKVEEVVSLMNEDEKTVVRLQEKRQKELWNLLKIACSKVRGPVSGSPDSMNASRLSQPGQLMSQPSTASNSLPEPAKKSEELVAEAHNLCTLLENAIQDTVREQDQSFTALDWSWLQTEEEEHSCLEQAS

In the case of `CSc1ccc(NC(=O)Nc2ccc(C)nc2)cc1` [BT503], in data set [1], the “IKKβ stability (thermal shift)” value is listed as “IKKβ stability was reduced in DMSO as compared to BT503 treatment”. For the same compound, in data set [2] (day 7 and 14 post-NTS treatment, vs DMSO), the albuminuria entry is “significantly less albuminuria”. In addition, the “p65 expression in the glomeruli” value in data set [2] (post-NTS treatment) was “attenuated”. Also, in data set [2] (vs DMSO), the “glomerular injury (% of glomeruli with FSGS, extracapillary proliferation) and proteinaceous casts” value was “significantly reduced”; the glomerular synaptopodin expression entry is reported as “restored”; the “interstitial fibrosis (masson's trichrome and α-SMA staining)” value was “less interstitial fibrosis”; the “podocyte number (WT1+ podocytes per glomerular cross-sectional area)” value is listed as “restored the podocyte number”. Moreover, in data set [3], the “DEGs involved in NF-κB signaling (GSEA, heatmap)” value is given as “downregulation”. The “basal respiration, maximal respiration, ATP-linked respiration, and spare respiratory capacity” value in data set [4] (3-10 μM) is listed as “No significant differences”. The “oxygen consumption rate (OCR) and extracellular acidification rate (ECAR)” value in data set [4] (as compared to DMSO or DEX) was “no significant differences”.
